Here are results for 24 compounds from patent US8410159B2, “Imidazole compounds having pharmaceutical activity towards the sigma receptor” (Laboratories del Dr. Esteve, S.A., priority 2006, dated 2013).

One data set addresses T1, σ1-receptor (Cavia porcellus, UniProt Q60492).
T1 construct: guinea pig brains were homogenized; from tissue; host or cells: guinea pig brain membranes
Kind of data set: Sigma-1 receptor binding assay, [3H](+)-pentazocine, brain membranes. Particulars: guinea pig brain membranes; for inhibition at 0.1 µM: compound 10^−7 M; for inhibition at 0.1 µM / inhibition at 0.01 µM: [3H](+)-pentazocine 0.5 nM; for inhibition at 0.01 µM: compound 10^−8 M; for Ki: σ1, [3H](+)-pentazocine. The method, then: Brain membrane preparation and binding assays for the σ1-receptor were performed as described (DeHaven-Hudkins et al., 1992) with some modifications. In brief, guinea pig brains were homogenized in 10 vols. (w/v) of Tris-HCl 50 mM 0.32 M sucrose, pH 7.4, with a Kinematica Polytron PT 3000 at 15000 r.p.m. for 30 s. The homogenate was centrifuged at 1000 g for 10 min at 4° C. and the supernatants collected and centrifuged again at 48000 g for 15 min at 4° C. The pellet was resuspended in 10 volumes of Tris-HCl buffer (50 mM, pH 7.4), incubated at 37° C. for 30 min, and centrifuged at 48000 g for 20 min at 4° C. Following this, the pellet was resuspended in fresh Tris-HCl buffer (50 mM, pH 7.4) and stored on ice until use.
Each assay tube contained 10 μL of [^3H](+)-pentazocine (final concentration of 0.5 nM), 900 μL of the tissue suspension to a final assay volume of 1 mL and a final tissue concentration of approximately 30 mg tissue net weight/mL. Non-specific binding was defined by addition of a final concentration of 1 μM haloperidol. All tubes were incubated at 37° C. for 150 min before termination of the reaction by rapid filtration over Schleicher & Schuell GF 3362 glass fibre filters [previously soaked in a solution of 0.5% polyethylenimine for at least 1 h]. Filters were then washed with four times with 4 mL of cold Tris-HCl buffer (50 mM, pH 7.4). Following addition of scintillation cocktail, the samples were allowed to equilibrate overnight. The amount of bound radioactivity was determined by liquid scintillation spectrometry using a Wallac Winspectral 1414 liquid scintillation counter. Protein concentrations were determined by the method of Lowry et al. (1951).

The test system of data set [1] is capsaicin-induced allodynia. Kind of data set: von Frey filaments in a model of capsaicin-induced allodynia. It counts as in vivo. The note with it: percent analgesia compared to control, mice, mechanical stimulus (von Frey) after capsaicin. The method, then:
In-Vivo-Experiments Using von Frey Filaments in a Model of […]-Induced Allodynia: This model is described in detail in the experimental part of WO 2006/010587 A1, examples 1 and 2, the description being included here by reference. Capsaicin is thereby injected into experimental animals to produce acute pain followed by allodynia. Briefly after habituation mice were first treated with the test-compound (or not in controls). Then capsaicin (1% DMSO) is injected into their paw resulting in developing pain in the effected paw. The effected paw is then treated with a mechanical stimulus and the latency time before the paw is withdrawn is measured.

Molecules are shown by their SMILES.

T1 sequence (Q60492 whole entry): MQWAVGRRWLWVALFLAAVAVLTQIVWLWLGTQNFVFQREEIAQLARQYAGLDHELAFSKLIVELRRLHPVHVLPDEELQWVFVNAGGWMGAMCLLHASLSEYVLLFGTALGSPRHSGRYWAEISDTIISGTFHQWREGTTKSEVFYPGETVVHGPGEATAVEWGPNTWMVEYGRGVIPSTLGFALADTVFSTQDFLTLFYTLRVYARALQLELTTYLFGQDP

With `CN(CCNc1ccn(-c2ccc(Cl)c(Cl)c2)n1)C1CCCCC1.O=C(O)C(=O)O`, the melting point lay in the range of 114 to 116 °C. On to `CN1CCN(CC(=O)Nc2ccn(-c3ccc(Cl)c(Cl)c3)n2)CC1.O=C(O)C(=O)O`, for which the melting point fell in the range of 213 to 217 °C. Still for that read-out and setting: under `CN1CCN(CCNc2ccn(-c3ccc(Cl)c(Cl)c3)n2)CC1.O=C(O)C(=O)O` stands 230 to 232 °C; under `Clc1ccc(-n2ccc(NCCN3CCCCCC3)n2)cc1Cl.O=C(O)C(=O)O`, 157 to 159 °C. On to `CN(CC(=O)Nc1ccn(-c2ccc(Cl)c(Cl)c2)n1)Cc1ccccc1.O=C(O)C(=O)O`, for which the melting point lay within 206 to 209 °C. Still for that read-out and setting: under `O=C(CN1CCOCC1)Nc1ccn(-c2ccc3ccccc3c2)n1.O=C(O)C(=O)O` stands 213 to 217 °C; under `O=C(O)C(=O)O.c1ccc2cc(-n3ccc(NCCN4CCOCC4)n3)ccc2c1`, 148 to 153 °C. Compound `Cc1cc(SCCN2CCCC2)nn1-c1ccc(Cl)c(Cl)c1.O=C(O)C(=O)O` yielded a melting point of 144 to 151 °C. `O=C(CN1CCOCC1)Nc1ccn(-c2cccc(Cl)c2)n1.O=C(O)C(=O)O` registered a melting point of 219 to 220 °C. As to `Cc1cc(SCCN2CCCCC2)nn1-c1ccc(Cl)c(Cl)c1.O=C(O)C(=O)O`, the melting point lay within 162 to 164 °C. On to `O=C(CN1CCCC1)Nc1ccn(C2CCCCC2)n1.O=C(O)C(=O)O`, for which the melting point lay in the range of 127 to 130 °C.

Take `Clc1cccc(-n2ccc(NCCN3CCOCC3)n2)c1.O=C(O)C(=O)O`: the melting point lay within 144 to 146 °C. The same measure, in the same setting: the result for `O=C(CN1CCCCC1)Nc1ccn(C2CCCCC2)n1.O=C(O)C(=O)O` reads 177 to 181 °C.

On σ1-receptor, `CCN(CC)CCNc1ccn(-c2ccc(Cl)c(Cl)c2)n1` [Example 1, 1-(3,4-dichlorophenyl)-N-(2-(diethylamino)ethyl)-1H-pyrazol-3-amine] displayed an inhibition at 0.1 µM of 66.6%, an inhibition at 0.01 µM of 1.8% and an inhibitory constant (Ki) of 46.4 nM.

Take `O=C(CN1CCOCC1)Nc1ccn(-c2ccc(Cl)c(Cl)c2)n1` [Example 2, N-(1-(3,4-dichlorophenyl)-1H-pyrazol-3-yl)-2-morpholinoacetamide]: at σ1-receptor, the inhibition at 0.1 µM is 37.8% and the inhibition at 0.01 µM is 25.9%. Regarding `Clc1ccc(-n2ccc(NCCN3CCOCC3)n2)cc1Cl` [Example 3, 1-(3,4-dichlorophenyl)-N-(2-morpholinoethyl)-1H-pyrazol-3-amine], on σ1-receptor, testing at 0.1 µM gave an inhibition of 78.9% and the inhibition at 0.01 µM was 54.3%. `CCN(CC)CC(=O)Nc1ccn(-c2ccc(Cl)c(Cl)c2)n1` [Example 4, N-(1-(3,4-dichlorophenyl)-1H-pyrazol-3-yl)-2-(diethylamino)acetamide] gave a melting point of 69 to 74 °C. For the same compound, the “Analgesia (16 mg/kg), i.p. %” value in data set [1] is 47%. On σ1-receptor, this compound showed an inhibition at 0.1 µM of 77.3%, an inhibition at 0.01 µM of 51.7% and an inhibition constant Ki of 6.4 nM. For the compound `O=C(CN1CCCCC1)Nc1ccn(-c2ccc(Cl)c(Cl)c2)n1` [Example 5, N-[1-(3,4-dichlorophenyl)-1H-pyrazol-3-yl)-2-(piperidin-1-yl)acetamide], the melting point is 78 to 82 °C. On σ1-receptor, this compound returned an inhibition at 0.1 µM of 68.2% and an inhibition at 0.01 µM of 46.1%. With `Clc1ccc(-n2ccc(NCCN3CCCCC3)n2)cc1Cl.O=C(O)C(=O)O` [Example 6, 1-(3,4-Dichlorophenyl)-N-(2-(piperidin-1-yl)ethyl)-1H-pyrazol-3-amine oxalate], the melting point lay in the range of 168 to 172 °C. Also, the “Analgesia (16 mg/kg), i.p. %” value in data set [1] is on record as 42%. Besides, at σ1-receptor, at 0.1 µM the inhibition was 88.3%, the inhibition at 0.01 µM was found to be 53.6% and the Ki was determined as 7.1 nM.

As to `CN(CC(=O)Nc1ccn(-c2ccc(Cl)c(Cl)c2)n1)C1CCCCC1` [Example 11, 2-(cyclohexyl (methyl)amino)-N-(1-(3,4-dichlorophenyl)-1H-pyrazol-3-yl)acetamide], the melting point is 88 to 94 °C. For the same compound, on σ1-receptor, testing at 0.1 µM gave an inhibition of 91.8% and the inhibition at 0.01 µM is 68.8%. As for `Clc1ccc(-n2ccc(NCCN3CCN(C4CCCCC4)CC3)n2)cc1Cl` [Example 14, N-(2-(4-cyclohexylpiperazin-1-yl)ethyl)-1-(3,4-dichlorophenyl)-1H-pyrazol-3-amine], the melting point fell in the range of 115 to 119 °C. Also, at σ1-receptor, at 0.1 µM the inhibition was 100% and the inhibition at 0.01 µM is 72.1%.

Regarding `O=C(CN1CCCCCC1)Nc1ccn(-c2ccc(Cl)c(Cl)c2)n1` [Example 28, 2-(azepan-1-yl)-N-(1-(3,4-dichlorophenyl)-1H-pyrazol-3-yl)acetamide], the melting point was 99 to 102 °C. For the compound `Cc1cc(SCCN2CCOCC2)nn1-c1ccc(Cl)c(Cl)c1.O=C(O)C(=O)O` [Example 68, 4-(2-(1-(3,4-dichlorophenyl)-5-methyl-1H-pyrazol-3-ylthio)ethyl) morpholine oxalate], the “Analgesia (16 mg/kg), i.p. %” value in data set [1] was determined as 21%. On σ1-receptor, the inhibition at 0.1 µM came to 93.5%; 0.01 µM produced 91.2% inhibition; the affinity, expressed as Ki, was 23 ± 0.6 nM.

With `CCN(CC)CCSc1cc(C)n(-c2ccc(Cl)c(Cl)c2)n1.O=C(O)C(=O)O` [Example 70, 2-(1-(3,4-dichlorophe-nyl)-5-methyl-1H-pyrazol-3-ylthio)-N,N-diethylethanamine oxalate], the melting point was 184 to 188 °C. Further, on σ1-receptor, testing at 0.1 µM gave an inhibition of 93.1% and the inhibition at 0.01 µM worked out at 34.6%.

One may read the melting point as the temperature, or range, at which the solid turns liquid. By inhibition is commonly meant how much of the control response was suppressed. A low value points to a response near the control. By Ki is commonly meant a dissociation constant, usually derived from enzyme kinetics or from competition with a known ligand. Low readings indicate higher affinity, high ones lower affinity.
